This is an account of results in US20240425479A1, “HALO-SUBSTITUTED AMINO AZA-HETEROARYL COMPOUNDS AS INHIBITORS OF THE HAEMATOPOIETIC PROGENITOR KINASE 1 (HPK1)” (priority 2021, published 2024).

The term IC50 denotes the concentration that gives 50% inhibition.

One assay deals with Lck (h) (Homo sapiens, UniProt P06239). Description: Lck human STE kinase enzymatic radiometric assay. The assay is classed as biochemical. The conditions noted are these: read-out: Lck IC50 nM Range. The procedure: (b) Lck Human STE Kinase Enzymatic Radiometric Assay
Lck (h) is incubated with 50 mM Tris pH 7.5, 0.1 mM EGTA, 0.1 mM Na3VO4, 250 uM KVEKIGEGTYGVVYK (Cdc2 peptide), 10 mM MgAcetate and [gamma-33P]-ATP (specific activity and concentration as required). The reaction is initiated by the addition of the Mg/ATP mix. After incubation for 40 minutes at room temperature, the reaction is stopped by the addition of phosphoric acid to a concentration of 0.5%, 10 μL of the reaction is then spotted onto a P30 filtermat and washed four times for 4 minutes in 0.425% phosphoric acid and once in methanol prior to drying and scintillation counting. For more details on the kinase assay procedures see: Gao, Y. et. al.; Biochem J., 451 (2): 313-328, 2013.

The target of assay [1] is T1, Recombinant (1-346) HPK1 (h) (Homo sapiens, UniProt Q92918).
T1 construct: Recombinant (1-346) HPK1 (h) is incubated with 8 mM MOPS pH 7.0
T1 sequence (Q92918 1-346): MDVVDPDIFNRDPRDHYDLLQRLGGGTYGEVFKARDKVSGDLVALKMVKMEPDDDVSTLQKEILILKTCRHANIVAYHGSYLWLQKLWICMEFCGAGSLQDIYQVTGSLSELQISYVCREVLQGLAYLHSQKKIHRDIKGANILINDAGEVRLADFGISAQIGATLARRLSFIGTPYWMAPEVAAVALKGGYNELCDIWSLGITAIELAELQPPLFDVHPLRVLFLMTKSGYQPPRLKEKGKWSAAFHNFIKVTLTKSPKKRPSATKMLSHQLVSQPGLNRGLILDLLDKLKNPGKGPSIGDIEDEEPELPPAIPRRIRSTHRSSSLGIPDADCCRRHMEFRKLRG
Description: HPK1 human STE kinase enzymatic radiometric assay. Format: biochemical. The conditions noted are these: read-out: HPK1 IC50 nM Range. The essentials:
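Recombinant HPK1 (1-346) incubated 40 min at RT with 0.33 mg/mL myelin basic protein and [gamma-33P]-ATP in 8 mM MOPS pH 7.0, 0.2 mM EDTA, 10 mM Mg acetate; reaction started with Mg/ATP. Stopped with 0.5% phosphoric acid, spotted on P30 filtermat, washed, scintillation counted. Compounds tested as 9-point 3-fold dilutions.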

Lck (h), sequence (P06239 whole entry): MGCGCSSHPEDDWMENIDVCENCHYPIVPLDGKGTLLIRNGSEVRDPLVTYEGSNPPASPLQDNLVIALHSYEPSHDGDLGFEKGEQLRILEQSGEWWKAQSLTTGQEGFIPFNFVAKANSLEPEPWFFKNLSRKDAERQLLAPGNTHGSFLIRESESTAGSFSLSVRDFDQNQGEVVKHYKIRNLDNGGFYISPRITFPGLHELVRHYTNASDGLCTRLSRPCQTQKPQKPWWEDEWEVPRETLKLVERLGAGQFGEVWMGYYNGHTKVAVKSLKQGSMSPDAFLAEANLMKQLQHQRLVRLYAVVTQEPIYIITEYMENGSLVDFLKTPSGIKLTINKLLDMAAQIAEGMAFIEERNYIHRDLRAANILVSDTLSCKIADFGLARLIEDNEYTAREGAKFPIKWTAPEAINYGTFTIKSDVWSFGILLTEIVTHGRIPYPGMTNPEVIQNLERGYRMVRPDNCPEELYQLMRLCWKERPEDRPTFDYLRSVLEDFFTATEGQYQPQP

On to `CN1C[C@@H]2C[C@]2(c2ccc(-c3nc(-c4ccc5c(=O)[nH]cc(F)c5c4)c(N)nc3F)cc2)C1` [Example I-80, 6-(3-amino-5-fluoro-6-(4-((1S,5R)-3-methyl-3-azabicyclo[3.1.0]hexan-1-yl)phenyl)pyrazin-2-yl)-4-fluoroisoquinolin-1(2H)-one], for which the values for the IC50 (at Lck (h); in assay [1]) were greater than 1000 nM and 0.1 to 10 nM, respectively.
For the molecule `CN(C)Cc1cc(-c2nc(-c3cc(F)c4c(c3)CCNC4=O)c(N)nc2F)ccc1C1CCOCC1` [Example I-83, 6-(3-amino-6-(3-((dimethylamino)methyl)-4-(tetrahydro-2H-pyran-4-yl)phenyl)-5-fluoropyrazin-2-yl)-8-fluoro-3,4-dihydroisoquinolin-1(2H)-one], the half-inhibitory concentration (IC50) at Lck (h) was greater than 1000 nM; in assay [1] it was 0.1 to 10 nM.
Turning to `Nc1nc(F)c(-c2ccc(C3CCOCC3)c(CN3CCCC3)c2)nc1-c1cc2c(cc1F)C(=O)NCC2` [Example I-148, 6-(3-amino-5-fluoro-6-(3-(pyrrolidin-1-ylmethyl)-4-(tetrahydro-2H-pyran-4-yl)phenyl)pyrazin-2-yl)-7-fluoro-3,4-dihydroisoquinolin-1(2H)-one], the half-maximal inhibitory concentration (IC50) at Lck (h) was greater than 1000 nM; in assay [1] it was 0.1 to 10 nM.
Consider `CC(C)N1CCN(c2ccc(-c3nc(-c4ccc5c(=O)[nH]cc(Cl)c5c4)c(N)nc3F)cc2)CC1` [Example I-78, 6-(3-amino-5-fluoro-6-(4-(4-isopropylpiperazin-1-yl)phenyl)pyrazin-2-yl)-4-chloroisoquinolin-1(2H)-one], for which the figures for the half-inhibitory concentration (IC50) (on Lck (h); in assay [1]) were 101 to 1000 nM and 0.1 to 10 nM, respectively.
As to `Cc1[nH]c(=O)c2ccc(-c3nc(-c4ccc(C5CCOCC5)c(CN(C)C)c4)c(F)nc3N)cc2c1F` [Example I-97, 6-(3-amino-6-(3-((dimethylamino)methyl)-4-(tetrahydro-2H-pyran-4-yl)phenyl)-5-fluoropyrazin-2-yl)-4-fluoro-3-methylisoquinolin-1(2H)-one], the figures for the IC50 (at Lck (h); in assay [1]) were greater than 1000 nM and 0.1 to 10 nM, respectively.
Consider `Nc1nc(F)c(-c2ccc(C3CCOCC3)c(CN3CCC3)c2)nc1-c1cc2c(cc1F)C(=O)NCC2` [Example I-170, 6-(3-amino-6-(3-(azetidin-1-ylmethyl)-4-(tetrahydro-2H-pyran-4-yl)phenyl)-5-fluoropyrazin-2-yl)-7-fluoro-3,4-dihydroisoquinolin-1(2H)-one], for which the values for the IC50 (at Lck (h); in assay [1]) were greater than 1000 nM and 0.1 to 10 nM, respectively.
Turning to `CC(C)N1CCN(c2ccc(-c3nc(-c4cc(F)c5c(c4)CCNC5=O)c(N)nc3F)cc2)CC1` [Example I-14, 6-(3-amino-5-fluoro-6-(4-(4-isopropylpiperazin-1-yl)phenyl)pyrazin-2-yl)-8-fluoro-3,4-dihydroisoquinolin-1(2H)-one], the half-inhibitory concentration (IC50) on Lck (h) lay in the range of 101 to 1000 nM; in assay [1] it was 0.1 to 10 nM.
Consider `CCN(C)Cc1cc(-c2nc(-c3ccc4c(=O)[nH]cc(F)c4c3)c(N)nc2F)ccc1C1CCOCC1` [Example I-238, 6-(3-amino-6-(3-((ethyl(methyl)amino)methyl)-4-(tetrahydro-2H-pyran-4-yl)phenyl)-5-fluoropyrazin-2-yl)-4-fluoroisoquinolin-1(2H)-one], for which the IC50 on Lck (h) is greater than 1000 nM; in assay [1], 0.1 to 10 nM.
For the molecule `CN(C)Cc1cc(-c2nc(-c3ccc4c(=O)[nH]cc(F)c4c3)c(N)nc2F)ccc1C1CCOCC1` [Example I-42, 6-(3-amino-6-(3-((dimethylamino)methyl)-4-(tetrahydro-2H-pyran-4-yl)phenyl)-5-fluoropyrazin-2-yl)-4-fluoroisoquinolin-1(2H)-one], the concentration for half-maximal inhibition (IC50) on Lck (h) is greater than 1000 nM; in assay [1], 0.1 to 10 nM.
In the same order, the values of `CC(C)N1CCC(c2ccc(-c3nc(-c4cc(F)c5c(c4)CCNC5=O)c(N)nc3F)cc2)CC1` [Example I-10, 6-(3-amino-5-fluoro-6-(4-(1-isopropylpiperidin-4-yl)phenyl)pyrazin-2-yl)-8-fluoro-3,4-dihydroisoquinolin-1(2H)-one] are 101 to 1000 nM and 0.1 to 10 nM.
For `CC(C)N1CCN(c2ccc(-c3nc(-c4ccc5c(c4)CCNC5=O)c(N)nc3Cl)cc2)CC1` [Example I-7, 6-(3-amino-5-chloro-6-(4-(4-isopropylpiperazin-1-yl)phenyl)pyrazin-2-yl)-3,4-dihydroisoquinolin-1(2H)-one], the values for the IC50 (at Lck (h); in assay [1]) were greater than 1000 nM and 11 to 100 nM, respectively.
`Cc1cc2cc(-c3nc(-c4ccc(C5CCOCC5)c(CN(C)C)c4)c(F)nc3N)cc(F)c2c(=O)[nH]1` [Example I-100, 6-(3-amino-6-(3-((dimethylamino)methyl)-4-(tetrahydro-2H-pyran-4-yl)phenyl)-5-fluoropyrazin-2-yl)-8-fluoro-3-methylisoquinolin-1(2H)-one]: the IC50 is greater than 1000 nM on Lck (h) and 0.1 to 10 nM in assay [1].
For the molecule `CC(C)S(=O)(=O)c1ccc(-c2nc(-c3ccc4c(=O)[nH]cc(F)c4c3)c(N)nc2F)cc1CN(C)C` [Example I-293, 6-(3-amino-6-(3-((dimethylamino)methyl)-4-(isopropylsulfonyl)phenyl)-5-fluoropyrazin-2-yl)-4-fluoroisoquinolin-1(2H)-one], the results for the IC50 (at Lck (h); in assay [1]) were greater than 1000 nM and 11 to 100 nM, respectively.
Take `CC(C)N1CCN(c2ccc(-c3nc(-c4cc5cc[nH]c(=O)c5cc4F)c(N)nc3F)cc2)CC1` [Example I-22, 6-(3-amino-5-fluoro-6-(4-(4-isopropylpiperazin-1-yl)phenyl)pyrazin-2-yl)-7-fluoroisoquinolin-1(2H)-one]: the concentration for half-maximal inhibition (IC50) is 101 to 1000 nM at Lck (h) and 0.1 to 10 nM in assay [1].
In the same order, the values of `Cc1cc2cc(-c3nc(-c4ccc(N5CCN(C(C)C)CC5)cc4)c(F)nc3N)cc(F)c2c(=O)[nH]1` [Example I-67, 6-(3-amino-5-fluoro-6-(4-(4-isopropylpiperazin-1-yl)phenyl)pyrazin-2-yl)-8-fluoro-3-methylisoquinolin-1(2H)-one] are greater than 1000 nM and 0.1 to 10 nM.
Take `CC(C)N1CCN(c2ccc(-c3nc(-c4cc5c(cc4F)C(=O)NCC5)c(N)nc3F)cc2)CC1` [Example I-2, 6-(3-amino-5-fluoro-6-(4-(4-isopropylpiperazin-1-yl)phenyl)pyrazin-2-yl)-7-fluoro-3,4-dihydroisoquinolin-1(2H)-one]: the figures for the IC50 (at Lck (h); in assay [1]) were greater than 1000 nM and 0.1 to 10 nM, respectively.
In the case of `Cc1nc2cc(-c3nc(-c4ccc(C5CCOCC5)c(CN(C)C)c4)c(F)nc3N)cc(F)c2c(=O)[nH]1` [Example I-91, 7-(3-amino-6-(3-((dimethylamino)methyl)-4-(tetrahydro-2H-pyran-4-yl)phenyl)-5-fluoropyrazin-2-yl)-5-fluoro-2-methylquinazolin-4(3H)-one], the IC50 at Lck (h) is greater than 1000 nM; in assay [1], 0.1 to 10 nM.
In the case of `Cc1c[nH]c(=O)c2ccc(-c3nc(-c4ccc(C5CCOCC5)c(CN(C)C)c4)c(F)nc3N)cc12` [Example I-98, 6-(3-amino-6-(3-((dimethylamino)methyl)-4-(tetrahydro-2H-pyran-4-yl)phenyl)-5-fluoropyrazin-2-yl)-4-methylisoquinolin-1(2H)-one], the values for the half-maximal inhibitory concentration (IC50) (at Lck (h); in assay [1]) were greater than 1000 nM and 0.1 to 10 nM, respectively.
Turning to `COC1CCN(Cc2cc(-c3nc(-c4ccc5c(c4)CCNC5=O)c(N)nc3F)ccc2N2CCOCC2)C1` (centres unmarked) [Example I-133, 6-(3-amino-5-fluoro-6-(3-((3-methoxypyrrolidin-1-yl)methyl)-4-morpholinophenyl)pyrazin-2-yl)-3,4-dihydroisoquinolin-1(2H)-one], the IC50 was greater than 1000 nM on Lck (h) and 0.1 to 10 nM in assay [1].
In the same order, the values of `Nc1nc(F)c(-c2ccc(N3CCN(C4COC4)CC3)cc2)nc1-c1cc(F)c2c(c1)CCNC2=O` [Example I-44, 6-(3-amino-5-fluoro-6-(4-(4-(oxetan-3-yl)piperazin-1-yl)phenyl)pyrazin-2-yl)-8-fluoro-3,4-dihydroisoquinolin-1(2H)-one] are greater than 1000 nM and 0.1 to 10 nM.
With `CC(C1CC1)N1CCN(c2ccc(-c3nc(-c4cc(F)c5c(c4)CCNC5=O)c(N)nc3F)cc2)CC1` (single isomer, unassigned) [Example I-29, 6-(3-amino-6-(4-(4-(1-cyclopropylethyl)piperazin-1-yl)phenyl)-5-fluoropyrazin-2-yl)-8-fluoro-3,4-dihydroisoquinolin-1(2H)-one], the 50% inhibitory concentration (IC50) at Lck (h) was in the range of 101 to 1000 nM; in assay [1], 0.1 to 10 nM.
Take `CN(C)Cc1cc(-c2nc(-c3cc(F)c4c(=O)[nH]cc(F)c4c3)c(N)nc2F)ccc1C1CCOCC1` [Example I-121, 6-(3-amino-6-(3-((dimethylamino)methyl)-4-(tetrahydro-2H-pyran-4-yl)phenyl)-5-fluoropyrazin-2-yl)-4,8-difluoroisoquinolin-1(2H)-one]: the figures for the half-maximal inhibitory concentration (IC50) (on Lck (h); in assay [1]) were greater than 1000 nM and 0.1 to 10 nM, respectively.
